Assays:
[1] = system: human TRPV4 mutations (R746C, R746G, R746D, K754G, R757G, R774G, and W776G); experiment: Ca2+ imaging in HEK cells transfected with human TRPV4 mutations; format: cell-based
Procedure: Cell culture and transfection. HEK293 cells (ATCC® CRL-1573) were cultured on poly-D-lysine coated coverslips in 24-well plate containing DMEM media with high-Glucose (Gibco, Gaithersburg, MD) supplemented with 10% fetal bovine serum (FBS, HyClone Laboratories, Logan, UT) and 100 U/mL of penicillin/streptomycin (Gibco, Gaithersburg, MD). Cell cultures were maintained with 5% of CO2 in a humidified incubator at 37° C. HEK cells were transfected with rat or human wild type or mutant TRPV4 channels with EGFP or YFP coupled to their C-termini (1.5 μg of plasmid for excised patch clamp and Ca^2+ imaging and 200 ng for single-channel experiments). The jetPEI™ Polyplus transfection reagent (Polyplus Transfection, New York, NY) for electrophysiology or Lipofectamine™ 2000 Reagent (Invitrogen, Waltham, MA) for Ca^2+ imaging were used for transfections per manufacturer's instructions as previously described (Chen et al. Pain 2014, 155, 2662-2672; Morales-Lazaro et al. Nat. Commun. 2016, 7, 13092). […]
In vitro and ex vivo Ca^2+ imaging. […] Ratios of emissions were acquired at 0.5 Hz. ΔR/R0 was determined as the fraction of the increase of a given ratio over baseline ratio divided by baseline ratio. […]

rTRPV4-R746D = rTRPV4-R746D (Rattus norvegicus, UniProt Q9ERZ8, R746D); experiment: In vitro interaction (overlay) assay LPC-TRPV4-R746D; format: binding; set-up: made in house; host or cells: HEK293 cells, surface protein fraction; details: 200 pmol per spot
Procedure: In vitro interaction assays of LPC-TRPV4. Surface proteins were obtained from HEK293 cells transiently expressing rTRPV4-EGFP channels using the Pierce Cell Surface Isolation kit (Pierce Biotechnology, Rockford, IL) following the manufacturer's instructions. Overlay assays were performed as previously described (Morales-Lazaro et al. Nat. Commun. 2016, 7, 13092). In brief, LPC 18:1 was spotted (200 pmol per spot) onto a nitrocellulose membrane (GE Healthcare, Pittsburgh, PA) and then blocked with 1% fatty acid-free BSA (Calbiochem) and 6% fat-free dried milk in PBS. Membranes were then incubated with the surface protein solutions and exposed to anti-GFP antibody (Sigma, St. Louis, MO) diluted 1:1000 in 3% fat-free dried milk in PBST (with 0.1% of Tween). Membranes were incubated with horseradish peroxidase-conjugated secondary anti-rabbit antibody (Cell Signaling Technology) diluted 1:7500 in 6% fat-free dried milk in PBST. The binding of rTRPV4-EGFP and TRPV4-R746D-EGFP to the lipid-containing spots was visualized by chemiluminescence by exposing the blot for 15 min (Amersham Bioscience, Piscataway, NJ). Semi-quantitative densitometric analysis was done using ImageJ (NIH) and expressed as relative protein levels of TRPV4 bound to each spot.

Sequence of rTRPV4-R746D (Q9ERZ8 whole entry R746D): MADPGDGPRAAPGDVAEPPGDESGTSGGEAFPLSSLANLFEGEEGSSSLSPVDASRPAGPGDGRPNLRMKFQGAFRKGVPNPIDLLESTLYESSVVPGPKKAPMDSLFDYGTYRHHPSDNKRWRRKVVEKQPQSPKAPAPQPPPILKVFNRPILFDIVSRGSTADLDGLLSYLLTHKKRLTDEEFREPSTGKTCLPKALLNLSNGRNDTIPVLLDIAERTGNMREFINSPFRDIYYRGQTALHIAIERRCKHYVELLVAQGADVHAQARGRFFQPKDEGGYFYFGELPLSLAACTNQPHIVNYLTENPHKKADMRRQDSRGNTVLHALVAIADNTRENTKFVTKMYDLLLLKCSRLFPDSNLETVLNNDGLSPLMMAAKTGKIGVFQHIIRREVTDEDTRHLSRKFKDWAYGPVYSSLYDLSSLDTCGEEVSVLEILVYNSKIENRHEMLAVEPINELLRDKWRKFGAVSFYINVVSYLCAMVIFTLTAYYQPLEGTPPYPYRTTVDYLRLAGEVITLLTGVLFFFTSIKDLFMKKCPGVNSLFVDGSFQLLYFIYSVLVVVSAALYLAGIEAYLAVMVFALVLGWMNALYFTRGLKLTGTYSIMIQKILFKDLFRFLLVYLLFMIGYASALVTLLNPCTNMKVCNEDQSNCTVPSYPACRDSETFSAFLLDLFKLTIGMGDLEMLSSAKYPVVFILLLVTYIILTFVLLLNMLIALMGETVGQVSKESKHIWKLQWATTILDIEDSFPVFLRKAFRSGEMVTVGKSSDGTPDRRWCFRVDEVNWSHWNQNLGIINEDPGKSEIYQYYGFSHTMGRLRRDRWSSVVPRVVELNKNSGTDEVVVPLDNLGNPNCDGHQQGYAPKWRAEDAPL

LPC 18:1
Ca2+ signal induced by 10 μM LPC 18:1 in TRPV4 mutants vs hTRPV4 [1]: drastically reduced | binding of LPC 18:1 to rTRPV4-R746D relative to rTRPV4 (rTRPV4-R746D): significantly reduced binding | binding of LPC 18:1 to rTRPV4-R746D relative to rTRPV4 (rTRPV4-R746D; listed as LPC (18:1)): significant reduction of this interaction
